The results in this text go back to patent publication US9067934B2, “Bicyclic pyridinones” (Pfizer Inc., priority 2011, dated 2015).

The test system of the test is production of amyloid beta protein Aβ(1-42) (γ-secretase) in human WT-APP overexpressing CHO cells. Briefly: Cell-Based γ-Secretase Assay with ELISA Readout. The conditions noted are these: human WT-APP overexpressing CHO cells, ~24 hours at 37° C., Aβ(1-42) ELISA; footnotes: a = geometric mean of >15 determinations, b = single determination, c = geometric mean of 7-15 determinations; read-out: Aβ 42B IC50 (Geometric Mean of 2-6 Determinations). In short, it runs like this:
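Human WT-APP-overexpressing CHO cells were pre-cultured 24 h at 37° C, then exposed to compounds (eleven-point half-log series, 1% final DMSO) for ~24 h. Aβ(1-42) in conditioned media was captured with Aβ(1-42)-specific antibody and detected with Eu-labeled 6e10 by DELFIA TRF. IC50 by nonlinear regression against min/max inhibition controls.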
In general terms: In an ELISA, binding on a coated surface is turned into a signal by an enzyme label.

A word on the IC50: it is the concentration at which inhibition is half-maximal.

Structures can show the parent of a compound that is named as a salt.

As for `Cc1cn(-c2ccc3n(c2=O)CCN(CCOc2ccccc2-c2ccc(C#N)cc2)C3=O)cn1` [Example 90, 2′-{2-[7-(4-methyl-1H-imidazol-1-yl)-1,6-dioxo-1,3,4,6-tetrahydro-2H-pyrido[1,2-a]pyrazin-2-yl]ethoxy}biphenyl-4-carbonitrile, formate salt], the IC50 is 147 nM.
The figure for `Cc1cn(-c2ccc3n(c2=O)CCN(CCOc2ccccc2-c2ccc4c(c2)OCO4)C3=O)cn1` [Example 91, 2-{2-[2-(1,3-benzodioxol-5-yl)phenoxy]ethyl}-7-(4-methyl-1H-imidazol-1-yl)-3,4-dihydro-2H-pyrido[1,2-a]pyrazine-1,6-dione, formate salt] is 120 nM; for `Cc1cn(-c2ccc3n(c2=O)CCN(CCOc2ccccc2-c2cc4ccccc4o2)C3=O)cn1` [Example 92, 2-{2-[2-(1-benzofuran-2-yl)phenoxy]ethyl}-7-(4-methyl-1H-imidazol-1-yl)-3,4-dihydro-2H-pyrido[1,2-a]pyrazine-1,6-dione, formate salt] it is 4.87 nM.
The figure for `Cc1ccc(-c2ccccc2OCCN2CCn3c(ccc(-n4cnc(C)c4)c3=O)C2=O)cc1` [Example 93, 2-{2-[(4′-methylbiphenyl-2-yl)oxy]ethyl}-7-(4-methyl-1H-imidazol-1-yl)-3,4-dihydro-2H-pyrido[1,2-a]pyrazine-1,6-dione, formate salt] is 75.8 nM.
The figure for `Cc1cn(-c2ccc3n(c2=O)CCN(CCOc2ccccc2-c2ccc(Cl)cc2)C3=O)cn1` [Example 94, 2-{2-[(4′-chlorobiphenyl-2-yl)oxy]ethyl}-7-(4-methyl-1H-imidazol-1-yl)-3,4-dihydro-2H-pyrido[1,2-a]pyrazine-1,6-dione, formate salt] is 108 nM.
Regarding `Cc1cccc(-c2ccccc2OCCN2CCn3c(ccc(-n4cnc(C)c4)c3=O)C2=O)c1` [Example 95, 2-{2-[(3′-methylbiphenyl-2-yl)oxy]ethyl}-7-(4-methyl-1H-imidazol-1-yl)-3,4-dihydro-2H-pyrido[1,2-a]pyrazine-1,6-dione, formate salt], the IC50 was 143 nM.
As to `Cc1cn(-c2ccc3n(c2=O)CCN(CCOc2cccc4cc(F)c(F)cc24)C3=O)cn1` [Example 96, 2-{2-[(6,7-difluoronaphthalen-1-yl)oxy]ethyl}-7-(4-methyl-1H-imidazol-1-yl)-3,4-dihydro-2H-pyrido[1,2-a]pyrazine-1,6-dione, trifluoroacetate salt], the IC50 was determined as 48.2 nM.
The figure for `Cc1cn(-c2ccc3n(c2=O)CCN(CCOc2cccc4nc(C(F)(F)F)sc24)C3=O)cn1` [Example 97, 7-(4-methyl-1H-imidazol-1-yl)-2-(2-{[2-(trifluoromethyl)-1,3-benzothiazol-7-yl]oxy}ethyl)-3,4-dihydro-2H-pyrido[1,2-a]pyrazine-1,6-dione, trifluoroacetate salt] is 21.3 nM; for `Cc1cn(-c2ccc3n(c2=O)CCN(CCOc2ccc(F)c4ccc(F)cc24)C3=O)cn1` [Example 98, 2-{2-[(4,7-difluoronaphthalen-1-yl)oxy]ethyl}-7-(4-methyl-1H-imidazol-1-yl)-3,4-dihydro-2H-pyrido[1,2-a]pyrazine-1,6-dione] it is 19.4 nM.
With `Cc1cn(-c2ccc3n(c2=O)CCN(CCOc2ncc(Cl)c4ccc(F)cc24)C3=O)cn1` [Example 99, 2-{2-[(4-chloro-7-fluoroisoquinolin-1-yl)oxy]ethyl}-7-(4-methyl-1H-imidazol-1-yl)-3,4-dihydro-2H-pyrido[1,2-a]pyrazine-1,6-dione, trifluoroacetate salt], the IC50 amounted to 25.3 nM.
On to `CCC(COc1ccc(Cl)cc1C(F)(F)F)N1CCn2c(ccc(-n3cnc(C)c3)c2=O)C1=O` (centres unmarked) [Example 100, 2-{1-[4-chloro-2-(trifluoromethyl)phenoxy]butan-2-yl}-7-(4-methyl-1H-imidazol-1-yl)-3,4-dihydro-2H-pyrido[1,2-a]pyrazine-1,6-dione, trifluoroacetate salt], for which the IC50 was determined as 135 nM.
